Here are results for 20 compounds from PubChem BioAssay AID256 (DTP/NCI, 2004).

The subject of the experiment is CD2F1 mice, L1210 leukemia ip, survival T/C. The experiment in a line: NCI In Vivo Anticancer Drug Screen. Data for tumor model L1210 Leukemia (intraperitoneal) in CD2F1 (CDF1) mice. The conditions noted are these: higher = longer survival. In short, it runs like this: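 Vehicle-treated tumor-bearing mice served as controls (C) for compound-treated mice (T). Reported figure is T divided by C.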

Setting [1] is: endpoint: mean survival time, dose: 100.0 mg/kg/injection, schedule: Q01DX009 (ip), vehicle: saline with Tween-80.
[2] abbreviates: endpoint: mean survival time, dose: 100.0 mg/kg/injection, schedule: Q04DX003 (ip), vehicle: saline with Tween-80.
Setting [3] is: endpoint: mean survival time, dose: 200.0 mg/kg/injection, schedule: Q01DX009 (ip), vehicle: saline with Tween-80.
[4] abbreviates: endpoint: mean survival time, dose: 200.0 mg/kg/injection, schedule: Q04DX003 (ip), vehicle: saline with Tween-80.
Where [5] appears, read: endpoint: mean survival time, dose: 400.0 mg/kg/injection, schedule: Q01DX009 (ip), vehicle: saline with Tween-80.
Where [6] appears, read: endpoint: mean survival time, dose: 400.0 mg/kg/injection, schedule: Q04DX003 (ip), vehicle: saline with Tween-80.

Each structure is given as a SMILES string. Values joined by “and” are separate entries in the source; they are usually repeats but may differ in a detail not shown here. Equal values may be shown once. Toxic doses and inconclusive results are not listed.

Regarding `Nc1ccc(CNc2ccccc2)cc1`, the T/C was 95 % of control and 103 % of control (endpoint: mean survival time, dose: 100.0 mg/kg/injection, schedule: Q04DX002 (ip), vehicle: other); 100 % of control and 106 % of control (endpoint: mean survival time, dose: 200.0 mg/kg/injection, schedule: Q04DX002 (ip), vehicle: other); 118 % of control and 91 % of control (endpoint: mean survival time, dose: 400.0 mg/kg/injection, schedule: Q04DX002 (ip), vehicle: other).
As to `CCOC(=O)Nc1cc(Cl)c2nnn(C(=O)OCC)c2n1`, the T/C is, setting by setting: (endpoint: mean survival time, dose: 12.5 mg/kg/injection, schedule: Q01DX005 (ip), vehicle: water) 105 % of control; (endpoint: mean survival time, dose: 25.0 mg/kg/injection, schedule: Q01DX005 (ip), vehicle: water) 98 % of control; (endpoint: mean survival time, dose: 50.0 mg/kg/injection, schedule: Q01DX005 (ip), vehicle: water) 96 % of control; (endpoint: mean survival time, dose: 100.0 mg/kg/injection, schedule: Q01DX005 (ip), vehicle: water) 105 % of control.
In the case of `CN=NN(C)C(=O)NC`, the T/C is 110 % of control (endpoint: median survival time, dose: 6.25 mg/kg/injection, schedule: Q01DX005 (ip), vehicle: saline); 120 % of control (endpoint: median survival time, dose: 12.5 mg/kg/injection, schedule: Q01DX005 (ip), vehicle: saline); 186 % of control (endpoint: median survival time, dose: 60.0 mg/kg/injection, schedule: Q01DX005 (ip), vehicle: saline); 204 % of control (endpoint: median survival time, dose: 100.0 mg/kg/injection, schedule: Q01DX005 (ip), vehicle: saline).
Consider `N=C1CCCS1`, for which the T/C (endpoint: median survival time, dose: 25.0 mg/kg/injection, schedule: Q01DX009 (ip), vehicle: saline) is 112 % of control; the T/C (endpoint: median survival time, dose: 50.0 mg/kg/injection, schedule: Q01DX009 (ip), vehicle: saline) is 116 % of control; the T/C (endpoint: median survival time, dose: 100.0 mg/kg/injection, schedule: Q01DX009 (ip), vehicle: saline) is 122 % of control.
Regarding `CC1(C)C2=CCCC3(OCCO3)C2(C)CCC1O` (configuration not stated), the T/C is, setting by setting: under setting [1], 104 % of control; under setting [2], 98 % of control; under setting [3], 106 % of control; under setting [4], 98 % of control; under setting [5], 98 % of control; under setting [6], 101 % of control.
As for `C=C1CC(Cc2ccccc2)OC1=O` (configuration not stated), the T/C is 96 % of control (endpoint: mean survival time, dose: 25.0 mg/kg/injection, schedule: Q01DX001 (ip), vehicle: saline with Tween-80); 101 % of control (endpoint: mean survival time, dose: 50.0 mg/kg/injection, schedule: Q01DX001 (ip), vehicle: saline with Tween-80); 101 % of control (endpoint: mean survival time, dose: 100.0 mg/kg/injection, schedule: Q01DX001 (ip), vehicle: saline with Tween-80).
For `O=C(Nc1ccc(Cl)c(Cl)c1)C(Cl)(Cl)Cl`, the T/C is 91 % of control (endpoint: mean survival time, dose: 100.0 mg/kg/injection, schedule: Q01DX009 (ip), vehicle: saline + alcohol); 89 % of control (endpoint: mean survival time, dose: 200.0 mg/kg/injection, schedule: Q01DX009 (ip), vehicle: saline + alcohol); 91 % of control (endpoint: mean survival time, dose: 400.0 mg/kg/injection, schedule: Q01DX009 (ip), vehicle: saline + alcohol).
On to `CSc1ccc(NC(=O)N(CCCl)N=O)cc1`, for which the T/C runs as follows: (endpoint: mean survival time, dose: 2.3 mg/kg/injection, schedule: Q01DX001 (ip), vehicle: other) 121 % of control; (endpoint: mean survival time, dose: 3.5 mg/kg/injection, schedule: Q01DX001 (ip), vehicle: other) 122 % of control.
For the compound `CCOC(=O)CNC(=O)CCCCSc1ncnc2nc[nH]c12`, the T/C by setting is: (endpoint: mean survival time, dose: 20.0 mg/kg/injection, schedule: Q01DX001 (ip), vehicle: saline with Tween-80) 95 % of control; (endpoint: mean survival time, dose: 20.0 mg/kg/injection, schedule: Q01DX009 (ip), vehicle: saline with Tween-80) 98 % of control; (endpoint: mean survival time, dose: 20.0 mg/kg/injection, schedule: Q04DX003 (ip), vehicle: saline with Tween-80) 102 % of control; (endpoint: mean survival time, dose: 40.0 mg/kg/injection, schedule: Q01DX001 (ip), vehicle: saline with Tween-80) 97 % of control; (endpoint: mean survival time, dose: 40.0 mg/kg/injection, schedule: Q01DX009 (ip), vehicle: saline with Tween-80) 94 % of control; (endpoint: mean survival time, dose: 40.0 mg/kg/injection, schedule: Q04DX003 (ip), vehicle: saline with Tween-80) 95 % of control. Besides, the T/C is 96 % of control (endpoint: mean survival time, dose: 80.0 mg/kg/injection, schedule: Q01DX009 (ip), vehicle: saline with Tween-80); 95 % of control (endpoint: mean survival time, dose: 80.0 mg/kg/injection, schedule: Q04DX003 (ip), vehicle: saline with Tween-80); 90 % of control (endpoint: mean survival time, dose: 160.0 mg/kg/injection, schedule: Q01DX001 (ip), vehicle: saline with Tween-80); 93 % of control (endpoint: mean survival time, dose: 160.0 mg/kg/injection, schedule: Q01DX009 (ip), vehicle: saline with Tween-80); 95 % of control (endpoint: mean survival time, dose: 160.0 mg/kg/injection, schedule: Q04DX003 (ip), vehicle: saline with Tween-80); 95 % of control (endpoint: mean survival time, dose: 320.0 mg/kg/injection, schedule: Q01DX001 (ip), vehicle: saline with Tween-80). In addition, the T/C (endpoint: mean survival time, dose: 320.0 mg/kg/injection, schedule: Q01DX009 (ip), vehicle: saline with Tween-80) was 96 % of control; the T/C (endpoint: mean survival time, dose: 320.0 mg/kg/injection, schedule: Q04DX003 (ip), vehicle: saline with Tween-80) is 93 % of control; the T/C (endpoint: mean survival time, dose: 640.0 mg/kg/injection, schedule: Q01DX001 (ip), vehicle: saline with Tween-80) is 97 % of control; the T/C (endpoint: mean survival time, dose: 640.0 mg/kg/injection, schedule: Q04DX003 (ip), vehicle: saline with Tween-80) is 100 % of control.
`Oc1cc(O)c2c(c1)OC(c1ccc(O)c(O)c1)C(O)C2c1c(O)cc(O)c2c1OC(c1ccc(O)c(O)c1)C(O)C2` (configuration not stated): the T/C reads like this: (endpoint: mean survival time, dose: 100.0 mg/kg/injection, schedule: Q04DX003 (ip), vehicle: saline) 107 % of control; (endpoint: mean survival time, dose: 200.0 mg/kg/injection, schedule: Q04DX003 (ip), vehicle: saline) 95 % of control; (endpoint: mean survival time, dose: 400.0 mg/kg/injection, schedule: Q04DX003 (ip), vehicle: saline) 104 % of control.
On to `CN(C)C(=O)c1ccccc1C(=O)c1ccccc1`, for which the T/C was 94 % of control (endpoint: mean survival time, dose: 100.0 mg/kg/injection, schedule: Q04DX002 (ip), vehicle: saline with Tween-80); 87 % of control (endpoint: mean survival time, dose: 200.0 mg/kg/injection, schedule: Q04DX002 (ip), vehicle: saline with Tween-80); 91 % of control (endpoint: mean survival time, dose: 400.0 mg/kg/injection, schedule: Q04DX002 (ip), vehicle: saline with Tween-80).
On to `CN(C)C(=O)c1cccc(NC(=O)NCc2cccc(N3C(N)=NC(N)=NC3(C)C)c2)c1`, for which the T/C is 94 % of control (endpoint: mean survival time, dose: 25.0 mg/kg/injection, schedule: Q01DX009 (ip), vehicle: saline) and 95 % of control (endpoint: mean survival time, dose: 50.0 mg/kg/injection, schedule: Q01DX009 (ip), vehicle: saline).
Regarding `N\C([S-])=N/N=C\C(=N/N=C(\N)[S-])C(O)C(O)C(O)CO.[Pd+2]` (configuration not stated), the T/C is 112 % of control (endpoint: mean survival time, dose: 50.0 mg/kg/injection, schedule: Q01DX009 (ip), vehicle: saline with Tween-80); 104 % of control under setting [1]; 89 % of control under setting [3].
For the compound `CCOC(=O)C1C(=O)NC(=O)N1Cc1ccccc1` (configuration not stated), the T/C by setting is: (endpoint: mean survival time, dose: 12.5 mg/kg/injection, schedule: Q01DX009 (ip), vehicle: other) 100 % of control; (endpoint: mean survival time, dose: 25.0 mg/kg/injection, schedule: Q01DX009 (ip), vehicle: other) 104 % of control; (endpoint: mean survival time, dose: 50.0 mg/kg/injection, schedule: Q01DX009 (ip), vehicle: other) 100 % of control; (endpoint: mean survival time, dose: 100.0 mg/kg/injection, schedule: Q01DX009 (ip), vehicle: other) 97 % of control; (endpoint: mean survival time, dose: 200.0 mg/kg/injection, schedule: Q01DX009 (ip), vehicle: other) 100 % of control.
Take `CC(=O)Nc1nc2ncc(/C=C/c3ccccc3)nc2c(=O)[nH]1`: the T/C by setting is: (endpoint: mean survival time, dose: 75.0 mg/kg/injection, schedule: Q01DX001 (ip), vehicle: other) 100 % of control; (endpoint: mean survival time, dose: 150.0 mg/kg/injection, schedule: Q01DX001 (ip), vehicle: other) 97 % of control.
On to `OC(COc1ccccc1)CN1CCCCC1` (configuration not stated), for which the T/C reads like this: under setting [1], 100 % of control; under setting [2], 101 % of control; under setting [3], 100 % of control; under setting [4], 98 % of control; under setting [5], 102 % of control; under setting [6], 98 % of control.
As to `O=C(Nc1ccc2ccccc2c1)c1ccc(Cl)cc1Cl`, the T/C reads like this: under setting [2], 96 % of control; under setting [4], 98 % of control; under setting [6], 95 % of control.
For `COC(=O)CCC(=O)Nc1ccccc1C(C)=O`, the T/C under setting [1] was 101 % of control, the T/C under setting [3] was 104 % of control and the T/C under setting [5] is 106 % of control.
As for `CCCC1CC[N-]CC1.CCCC1CC[N-]CC1.[Cl][Pt+2]([Cl])([Cl])[Cl]`, the T/C by setting is: (endpoint: mean survival time, dose: 12.5 mg/kg/injection, schedule: Q01DX009 (ip), vehicle: saline sonified) 114 % of control; (endpoint: mean survival time, dose: 25.0 mg/kg/injection, schedule: Q04DX003 (ip), vehicle: saline with Tween-80) 98 % of control.
With `COc1cc(/C=C/c2ccc3ccccc3n2)cc(OC)c1OC`, the T/C was 94 % of control under setting [1]; 104 % of control under setting [2]; 91 % of control under setting [3]; 96 % of control under setting [4]; 89 % of control under setting [5]; 98 % of control under setting [6].
